System: Triticum aestivum
Assay: Growth inhibition of etiolated wheat coleoptiles at 1000 uM relative to control
Assay type: functional
Conditions: read-out: GI

CCCCCC[C@H](O)[C@@H]1CC[C@@H]2[C@H](O)CC[C@H](O)[C@@]2(O)O1 [KONINGININ G]
inhibition of growth at 1000 µM: 56%

CCCCCc1cccc(=O)o1
inhibition of growth at 1000 µM: 100%
